Assay results published in patent publication US20180177771A1, “BIOMARKERS FOR NANOPARTICLE COMPOSITIONS” (priority 2015, published 2018).

Columns and labels:
[1] = in vivo; cited from earlier work
[2] = test system: ABCB1/ABCG2; settings: cited from earlier work
[3] = test system: UMUC3 human bladder cancer xenografts; test: UMUC3 bladder cancer mouse xenograft, Part B combination study; settings: ABI-009 3 mg/kg twice weekly IV, gemcitabine 30 mg/kg twice weekly IP
Method: The anti-tumor efficacy of a panel of drugs, including mitomycin C, cisplatin, gemcitabine, valrubicin, and docetaxel, in combination with Nab-sirolimus (such as ABI-009) were evaluated and compared in a UMUC3 cell xenograft model in athymic nude mice.
Tumors were established from the UMUC3 cells as follows. Female athymic nude mice were obtained and housed in filter-topped cages supplied with autoclaved bedding. Animal handling procedures were under laminar flow hood. Each mouse was ear tagged for individual identification, and the body weight of each mouse was recorded. UMUC3 cells (10×10^6 cells per flank in 0.1 mL PBS with 20% Matrigel) were injected subcutaneously into the right flank of each mouse to implant the tumor. Tumor measurements were recorded three times per week (such as on Mondays, Wednesdays and Fridays) until tumors became approximately 60 to 160 mm^3 total. The mice were randomized for treatment once the average tumor volumes reached approximately 100 mm^2. Prior to the treatment, body weights and tumor measurements of all mice were recorded.
In the Part B combination study, athymic mice bearing UMUC3 human bladder cancer xenografts were treated until study end with ABI-009 (3 mg/kg, twice weekly, IV via tail vein), mitomycin C (0.5 mg/kg, twice weekly, IP), cisplatin (3 mg/kg, twice weekly. IP), gemcitabine (30 mg/kg, twice weekly, IP), valrubicin (20 mg/kg, twice weekly, IP), and docetaxel (3 mg/kg, twice weekly, IP) either as single agent or in combination (ABI-009 plus chemotherapeutic agent). Animals were monitored for tumor volume and body weight.
In each combination of drugs being administered comprising Nab-sirolimus and a second drug (such as MMC. Cis, GEM. Val, and Doc), the second drug was administered immediately before Nab-sirolimus. The mice were monitored during the course of the treatment by recording body weights three times per week (such as on Mondays, Wednesdays and Fridays), recording signs of distress daily, and recording tumor measurements three times per week (such as on Mondays. Wednesdays and Fridays). Measurements of tumor sizes and body weights were continued for 2 weeks following completion of the dosing regimen, or until the mouse was sacrificed when the tumor size of the mouse is more than 2000 mm^3.

| Compound | brain penetration [1] | affinity for ABCB1/ABCG2 [2] | animal survival compared with saline control [3] | antitumor activity (tumor growth inhibition) compared with saline control [3] | median survival ([3]; Log-rank test) | TGI ([3]; single agent or combination) |
| --- | --- | --- | --- | --- | --- | --- |
| COc1ccc(COc2cc3oc(=O)c4cc(C(C)O)ccc4c3cc2OC)cc1 (stereo not drawn) [Palomid 529] | good brain penetration | lacks affinity for ABCB1/ABCG2 |  |  |  |  |
| Nc1ccn([C@@H]2O[C@H](CO)[C@@H](O)C2(F)F)c(=O)n1 [gemcitabine] |  |  | only modest effects | only modest effects | 20 days | 41.7% |
